How the values were obtained:
A431 cells = assay: Inhibition of A431 cell proliferation (CellTiter-Glo); assay type: cell-based; details: Homo sapiens, A-431, 72 h, read-out: EGFR IC50 (nM) A431
Protocol: 4. Experiment on the Inhibition of A431 Cell Proliferation
In this experiment, the inhibitory effect of the compounds on A431 cell proliferation was tested by a CellTiter-Glo method, and the half maximal inhibitory concentration (IC50) of the compounds on the activity of cell proliferation was determined.
The culture plate was incubated in the incubator for 16 to 24 hours (37° C., 5% CO2).
(§1) 2) Different concentrations of the test compound in a gradient dilution were added to the cells in the culture plate. The culture plate was incubated in an incubator for 72 hours (37° C., 5% CO2).
3) 50 to 100 μL of CellTiter-Glo reagent was added to each well. Then the culture plate was shaken for 10 minutes, and left to stand at room temperature for 10 minutes.
(§2) 4) The chemiluminescence signal values of each plate were determined by a microplate reader.
5) The inhibition rates were calculated according to the chemiluminescence signal values. 6) The IC50 of the compound was obtained by curve fitting according to the inhibition rates at different concentrations.

wild-type EGFR enzyme = wild-type EGFR enzyme (Homo sapiens, UniProt P00533); assay: Enzymologic experiment of wild-type (WT) EGFR (TR-FRET); assay type: biochemical; details: ATP 0.1 to 5 uM
Protocol: 2. Enzymologic Experiment of Wild-Type (WT) EGFR
In this experiment, the inhibitory effect of compounds on wild-type EGFR enzyme was tested by a fluorescence resonance energy transfer (TR-FRET) method, and the half maximal inhibitory concentration IC50 of the compounds on enzymatic activity was determined.
1) 1 to 5 μL of wild-type EGFR enzyme solution was added to a 384-well plate, and the final concentration of the enzyme was 0.1 to 1 nM.
(§3) 2) 1 to 5 μL of diluted solution in gradient of the compound was added.
(§4) 3) The mixture was incubated for 10 minutes at room temperature.
(§5) 6) 5 μL of EDTA stop solution was added to terminate the reaction for 5 minutes.
7) 5 μL of a test solution containing the labeled antibody was added, and the mixture was incubated at room temperature for 1 hour.
9) The inhibition rates were calculated from the fluorescence signal values.
(§6) 10) The IC50 of the compound was obtained by curve fitting according to the inhibition rates at different concentrations.

NCI-H1975 cells = assay: Inhibition of NCI-H1975 cell proliferation (CellTiter-Glo); assay type: cell-based; details: for IC50: Homo sapiens, NCI-H1975, 72 h, NCI-H1975 cell proliferation, 72 hours, CellTiter-Glo, read-out: EGFR IC50 (nM) H1975; for Selectivity of wild-type/mutant-type: ratio A431 IC50 / H1975 IC50, cells
Protocol: 3. Experiment on the Inhibition of NCI-H1975 Cell Proliferation
In this experiment, the inhibitory effect of the compounds on NCI-H1975 cell proliferation was tested by a CellTiter-Glo method, and the half maximal inhibitory concentration (IC50) of the compounds on the activity of cell proliferation was determined.
The culture plate was incubated in an incubator for 16 to 24 hours (37° C., 5% CO2).
as §1
3) 50 to 100 μL of CellTiter-Glo reagent was added to each well. Then, the culture plate was shaken for 10 minutes, and left to stand at room temperature for 10 minutes.
as §2
5) The inhibition rates were calculated according to the chemiluminescence signal values.
6) The IC50 of the compound was obtained by curve fitting according to the inhibition rates at different concentrations.

[1] = target: exon 20 T790M mutant-type EGFR enzyme (Homo sapiens, UniProt P00533, T790M); assay: Enzymologic experiment of T790M mutant-type EGFR (TR-FRET); assay type: biochemical; details: for IC50: T790M EGFR enzyme, TR-FRET, ATP 1 to 10 uM; for Selectivity of wild-type/mutant-type: ratio WT IC50 / T790M IC50, enzyme
Protocol: as §3, §4, §5
7) […] of a test solution containing the labeled antibody was added, and the mixture was incubated at room temperature for 1 hour.
9) The inhibition rates were calculated according to the fluorescence signal values.
as §6

Sequence of wild-type EGFR enzyme (P00533 25-1210): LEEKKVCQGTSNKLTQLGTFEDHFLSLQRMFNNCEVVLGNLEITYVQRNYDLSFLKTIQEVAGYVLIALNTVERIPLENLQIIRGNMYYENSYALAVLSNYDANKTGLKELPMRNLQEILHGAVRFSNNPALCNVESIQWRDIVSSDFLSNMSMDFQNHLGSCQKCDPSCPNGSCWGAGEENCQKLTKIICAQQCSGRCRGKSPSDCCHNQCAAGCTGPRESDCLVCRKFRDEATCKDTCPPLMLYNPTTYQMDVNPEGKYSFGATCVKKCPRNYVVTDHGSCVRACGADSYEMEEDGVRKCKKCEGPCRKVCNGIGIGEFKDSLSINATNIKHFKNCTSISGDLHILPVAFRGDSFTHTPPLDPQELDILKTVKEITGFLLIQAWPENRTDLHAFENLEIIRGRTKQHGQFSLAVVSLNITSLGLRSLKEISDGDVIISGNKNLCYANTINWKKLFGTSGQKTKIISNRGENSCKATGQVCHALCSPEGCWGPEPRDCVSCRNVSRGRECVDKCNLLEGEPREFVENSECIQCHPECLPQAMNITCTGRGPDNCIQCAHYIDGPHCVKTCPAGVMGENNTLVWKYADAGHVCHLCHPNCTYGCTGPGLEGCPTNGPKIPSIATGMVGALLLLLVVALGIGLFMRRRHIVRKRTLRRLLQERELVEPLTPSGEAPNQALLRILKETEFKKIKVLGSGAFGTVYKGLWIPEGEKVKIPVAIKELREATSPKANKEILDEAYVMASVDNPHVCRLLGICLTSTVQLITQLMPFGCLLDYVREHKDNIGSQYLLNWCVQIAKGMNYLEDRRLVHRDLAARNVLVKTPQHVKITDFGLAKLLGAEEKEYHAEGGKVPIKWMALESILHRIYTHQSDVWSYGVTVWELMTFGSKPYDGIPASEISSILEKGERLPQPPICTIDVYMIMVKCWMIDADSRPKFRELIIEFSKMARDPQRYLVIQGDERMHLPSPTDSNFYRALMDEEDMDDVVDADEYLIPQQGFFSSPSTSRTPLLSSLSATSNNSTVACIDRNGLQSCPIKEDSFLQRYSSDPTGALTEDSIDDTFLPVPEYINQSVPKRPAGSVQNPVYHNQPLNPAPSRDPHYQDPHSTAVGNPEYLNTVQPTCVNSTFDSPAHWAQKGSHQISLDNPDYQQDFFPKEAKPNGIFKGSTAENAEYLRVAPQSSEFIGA
Sequence of exon 20 T790M mutant-type EGFR enzyme (P00533 25-1210 T790M): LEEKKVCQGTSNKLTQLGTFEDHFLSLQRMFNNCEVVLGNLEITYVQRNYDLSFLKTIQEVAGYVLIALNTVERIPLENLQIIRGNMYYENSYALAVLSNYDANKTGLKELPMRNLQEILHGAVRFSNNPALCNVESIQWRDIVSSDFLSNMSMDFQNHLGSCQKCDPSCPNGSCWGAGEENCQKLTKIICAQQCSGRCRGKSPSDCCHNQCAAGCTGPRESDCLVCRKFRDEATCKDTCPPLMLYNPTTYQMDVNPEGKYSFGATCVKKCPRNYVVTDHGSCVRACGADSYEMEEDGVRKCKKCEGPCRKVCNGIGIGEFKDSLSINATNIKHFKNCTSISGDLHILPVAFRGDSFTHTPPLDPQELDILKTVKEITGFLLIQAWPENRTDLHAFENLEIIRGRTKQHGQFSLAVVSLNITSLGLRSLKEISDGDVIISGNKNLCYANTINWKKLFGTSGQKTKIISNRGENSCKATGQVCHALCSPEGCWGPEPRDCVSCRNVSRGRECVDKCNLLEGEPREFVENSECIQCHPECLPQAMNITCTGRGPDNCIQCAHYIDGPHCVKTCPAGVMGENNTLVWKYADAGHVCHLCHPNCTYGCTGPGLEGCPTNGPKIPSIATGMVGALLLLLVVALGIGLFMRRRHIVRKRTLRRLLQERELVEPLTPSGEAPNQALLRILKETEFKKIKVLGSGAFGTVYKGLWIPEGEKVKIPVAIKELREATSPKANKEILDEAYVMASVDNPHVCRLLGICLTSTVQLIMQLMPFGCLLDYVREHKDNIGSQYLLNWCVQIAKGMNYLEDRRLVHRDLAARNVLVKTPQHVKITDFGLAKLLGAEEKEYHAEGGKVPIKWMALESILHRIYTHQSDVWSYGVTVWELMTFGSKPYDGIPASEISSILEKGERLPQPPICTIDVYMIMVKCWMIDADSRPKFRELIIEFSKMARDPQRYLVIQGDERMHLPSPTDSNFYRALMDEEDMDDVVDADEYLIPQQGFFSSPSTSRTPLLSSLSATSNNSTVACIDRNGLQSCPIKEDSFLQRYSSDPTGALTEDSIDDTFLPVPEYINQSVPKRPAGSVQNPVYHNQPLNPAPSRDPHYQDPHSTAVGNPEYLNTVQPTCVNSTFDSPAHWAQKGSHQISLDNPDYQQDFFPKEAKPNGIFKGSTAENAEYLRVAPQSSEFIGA

SMILES: C=CC(=O)Nc1cc(Nc2nccc(-c3cn(C)c4cc(C#N)ccc34)n2)c(OC(F)F)cc1N(C)CCN(C)C [Example 9, N-(5-((4-(6-cyano-1-methyl-1H-indol-3-yl)pyrimidin-2-yl)amino)-4-(difluoromethoxy)-2-((2-(dimethylamino)ethyl)(methyl)amino)phenyl)acrylamide]
- IC50 (A431 cells): 216 nM
- IC50 (wild-type EGFR enzyme): 2.12 nM
- IC50 (NCI-H1975 cells): 4.58 nM
- Selectivity of wild-type/mutant-type (NCI-H1975 cells): 47.07
- IC50 [1]: 0.39 nM
- Selectivity of wild-type/mutant-type [1]: 5.44

SMILES: C=CC(=O)Nc1cc(Nc2nccc(-c3cn(S(=O)(=O)N(C)C)c4ccccc34)n2)c(OC(F)F)cc1N(C)CCN(C)C [Example 21, N-(4-(difluoromethoxy)-2-((2-(dimethylamino)ethyl)(methyl)amino)-5-((4-(1-(N,N-dimethylsulfamoyl)-1H-indol-3-yl)pyrimidin-2-yl)amino)phenyl)acrylamide]
- IC50 (A431 cells): 70.8 nM
- IC50 (wild-type EGFR enzyme): 0.4 nM
- IC50 (NCI-H1975 cells): 3.23 nM
- Selectivity of wild-type/mutant-type (NCI-H1975 cells): 21.93
- IC50 [1]: 0.3 nM
- Selectivity of wild-type/mutant-type [1]: 1.33

SMILES: C=CC(=O)Nc1cc(Nc2nccc(-c3cn(C)c4cc(C5CC5)ccc34)n2)c(OC)cc1N(C)CCN(C)C [Example 22, N-(5-((4-(6-cyclopropyl-1-methyl-1H-indol-3-yl)pyrimidin-2-yl)amino)-2-((2-(dimethylamino)ethyl)(methyl)amino)-4-methoxyphenyl)acrylamide]
- IC50 (A431 cells): 800 nM
- IC50 (wild-type EGFR enzyme): 7.44 nM
- IC50 (NCI-H1975 cells): 13.2 nM
- Selectivity of wild-type/mutant-type (NCI-H1975 cells): 60.6
- IC50 [1]: 0.71 nM
- Selectivity of wild-type/mutant-type [1]: 10.4

SMILES: C=CC(=O)Nc1cc(Nc2nccc(-c3cn(C)c4ccc(OC)cc34)n2)c(OC)cc1N(C)CCN(C)C [Example 24, N-(2-((2-(dimethylamino)ethyl)(methyl)amino)-4-methoxy-5-((4-(5-methoxy-1-methyl-1H-indol-3-yl)pyrimidin-2-yl)amino)phenyl)acrylamide]
- IC50 (A431 cells): 453 nM
- IC50 (wild-type EGFR enzyme): 4.02 nM
- IC50 (NCI-H1975 cells): 8.62 nM
- Selectivity of wild-type/mutant-type (NCI-H1975 cells): 52.59
- IC50 [1]: 3.53 nM
- Selectivity of wild-type/mutant-type [1]: 1.1

SMILES: C=CC(=O)Nc1cc(Nc2nccc(-c3cn(C)c4cc(OC)ccc34)n2)c(OC)cc1N(C)CCN(C)C [Example 25, N-(2-((2-(dimethylamino)ethyl)(methyl)amino)-4-methoxy-5-((4-(6-methoxy-1-methyl-1H-indol-3-yl)pyrimidin-2-yl)amino)phenyl)acrylamide]
- IC50 (A431 cells): 93.2 nM
- IC50 (wild-type EGFR enzyme): 7.11 nM
- IC50 (NCI-H1975 cells): 4.56 nM
- Selectivity of wild-type/mutant-type (NCI-H1975 cells): 20.45
- IC50 [1]: 0.36 nM
- Selectivity of wild-type/mutant-type [1]: 19.9

SMILES: C=CC(=O)Nc1cc(Nc2nccc(-c3cn(C)c4cc(F)c(F)cc34)n2)c(OC)cc1N(C)CCN(C)C [Example 28, N-(5-((4-(5,6-difluoro-1-methyl-1H-indol-3-yl)pyrimidin-2-yl)amino)-2-((2-(dimethylamino)ethyl)(methyl)amino)-4-methoxyphenyl)acrylamide]
- IC50 (A431 cells): 272 nM
- IC50 (wild-type EGFR enzyme): 1.89 nM
- IC50 (NCI-H1975 cells): 6.4 nM
- Selectivity of wild-type/mutant-type (NCI-H1975 cells): 42.52
- IC50 [1]: 1.83 nM
- Selectivity of wild-type/mutant-type [1]: 1.0

SMILES: C=CC(=O)Nc1cc(Nc2nccc(-n3ncc4ccccc43)n2)c(OC)cc1N(C)CCN(C)C [Example 40, N-(5-((4-(1H-indazol-1-yl)pyrimidin-2-yl)amino)-2-((2-(dimethylamino)ethyl)(methyl)amino)-4-methoxyphenyl)acrylamide]
- IC50 (A431 cells): 339 nM
- IC50 (wild-type EGFR enzyme): 3.36 nM
- IC50 (NCI-H1975 cells): 1.95 nM
- Selectivity of wild-type/mutant-type (NCI-H1975 cells): 174.05
- IC50 [1]: 0.39 nM
- Selectivity of wild-type/mutant-type [1]: 8.62

SMILES: C=CC(=O)Nc1cc(Nc2nccc(-n3ncc4c(OC)cccc43)n2)c(OC)cc1N(C)CCN(C)C [Example 41, N-(2-((2-(dimethylamino)ethyl)(methyl)amino)-4-methoxy-5-((4-(4-methoxy-1H-indazol-1-yl)pyrimidin-2-yl)amino)phenyl)acrylamide]
- IC50 (A431 cells): 138 nM
- IC50 (wild-type EGFR enzyme): 2.5 nM
- IC50 (NCI-H1975 cells): 5.93 nM
- Selectivity of wild-type/mutant-type (NCI-H1975 cells): 23.36
- IC50 [1]: 0.51 nM
- Selectivity of wild-type/mutant-type [1]: 4.90

SMILES: C=CC(=O)Nc1cc(Nc2nccc(-n3ncc4ccc(OC)cc43)n2)c(OC)cc1N(C)CCN(C)C [Example 42, N-(2-((2-(dimethylamino)ethyl)(methyl)amino)-4-methoxy-5-((4-(6-methoxy-1H-indazol-1-yl)pyrimidin-2-yl)amino)phenyl)acrylamide]
- IC50 (A431 cells): 76.3 nM
- IC50 (wild-type EGFR enzyme): 0.82 nM
- IC50 (NCI-H1975 cells): 5 nM
- Selectivity of wild-type/mutant-type (NCI-H1975 cells): 15.25
- IC50 [1]: 0.48 nM
- Selectivity of wild-type/mutant-type [1]: 1.71

SMILES: C=CC(=O)Nc1cc(Nc2nccc(-n3nc(C4CC4)c4ccccc43)n2)c(OC)cc1N(C)CCN(C)C [Example 44, N-(5-((4-(3-cyclopropyl-1H-indazol-1-yl)pyrimidin-2-yl)amino)-2-((2-(dimethylamino)ethyl)(methyl)amino)-4-methoxyphenyl)acrylamide]
- IC50 (A431 cells): 406 nM
- IC50 (wild-type EGFR enzyme): 2.5 nM
- IC50 (NCI-H1975 cells): 7.13 nM
- Selectivity of wild-type/mutant-type (NCI-H1975 cells): 56.93
- IC50 [1]: 0.38 nM
- Selectivity of wild-type/mutant-type [1]: 6.58

SMILES: C=CC(=O)Nc1cc(Nc2ncc(Cl)c(-n3ncc4cc(OC)ccc43)n2)c(OC)cc1N(C)CCN(C)C [Example 48, N-(5-((5-chloro-4-(5-methoxy-1H-indazol-1-yl)pyrimidin-2-yl)amino)-2-((2-(dimethylamino)ethyl)(methyl)amino)-4-methoxyphenyl)acrylamide]
- IC50 (A431 cells): 102 nM
- IC50 (wild-type EGFR enzyme): 2.52 nM
- IC50 (NCI-H1975 cells): 1.75 nM
- Selectivity of wild-type/mutant-type (NCI-H1975 cells): 58.06
- IC50 [1]: 0.24 nM
- Selectivity of wild-type/mutant-type [1]: 10.5

SMILES: C=CC(=O)Nc1cc(Nc2ncc(C(F)(F)F)c(-n3ncc4cc(OC)ccc43)n2)c(OC)cc1N(C)CCN(C)C [Example 49, N-(2-((2-(dimethylamino)ethyl)(methyl)amino)-4-methoxy-5-((4-(5-methoxy-1H-indazol-1-yl)-5-(trifluoromethyl)pyrimidin-2-yl)amino)phenyl)acrylamide]
- IC50 (A431 cells): 128 nM
- IC50 (wild-type EGFR enzyme): 6.3 nM
- IC50 (NCI-H1975 cells): 1.93 nM
- Selectivity of wild-type/mutant-type (NCI-H1975 cells): 66.48
- IC50 [1]: 0.17 nM
- Selectivity of wild-type/mutant-type [1]: 37.06

SMILES: C=CC(=O)Nc1cc(Nc2nccc(-n3ncc4cc(C#N)ccc43)n2)c(OC)cc1N(C)CCN(C)C [Example 50, N-(5-((4-(5-cyano-1H-indazol-1-yl)pyrimidin-2-yl)amino)-2-((2-(dimethylamino)ethyl)(methyl)amino)-4-methoxyphenyl)acrylamide]
- IC50 (A431 cells): 503 nM
- IC50 (wild-type EGFR enzyme): 6.39 nM
- IC50 (NCI-H1975 cells): 6.14 nM
- Selectivity of wild-type/mutant-type (NCI-H1975 cells): 81.87
- IC50 [1]: 0.66 nM
- Selectivity of wild-type/mutant-type [1]: 9.68

SMILES: C=CC(=O)Nc1cc(Nc2ncc(Cl)c(-n3ncc4cc(C#N)ccc43)n2)c(OC)cc1N(C)CCN(C)C [Example 51, N-(5-((5-chloro-4-(5-cyano-1H-indazol-1-yl)pyrimidin-2-yl)amino)-2-((2-(dimethylamino)ethyl)(methyl)amino)-4-methoxyphenyl)acrylamide]
- IC50 (A431 cells): 394 nM
- IC50 (wild-type EGFR enzyme): 14.5 nM
- IC50 (NCI-H1975 cells): 5.06 nM
- Selectivity of wild-type/mutant-type (NCI-H1975 cells): 77.94
- IC50 [1]: 0.53 nM
- Selectivity of wild-type/mutant-type [1]: 27.56

SMILES: C=CC(=O)Nc1cc(Nc2nccc(-n3nc(C)c4cc(OC)c(OC)cc43)n2)c(OC)cc1N(C)CCN(C)C [Example 53, N-(5-((4-(5,6-dimethoxy-3-methyl-1H-indazol-1-yl)pyrimidin-2-yl)amino)-2-((2-(dimethylamino)ethyl)(methyl)amino)-4-methoxyphenyl)acrylamide]
- IC50 (A431 cells): 628 nM
- IC50 (wild-type EGFR enzyme): 34.1 nM
- IC50 (NCI-H1975 cells): 20 nM
- Selectivity of wild-type/mutant-type (NCI-H1975 cells): 31.38
- IC50 [1]: 2.53 nM
- Selectivity of wild-type/mutant-type [1]: 13.50
